Experimental data as given in paper PMC11017252, “Copper(II) Complexes with 2,2′:6′,2″-Terpyridine Derivatives Displaying Dimeric Dichloro−μ–Bridged Crystal Structure: Biological Activities from 2D and 3D Tumor Spheroids to In Vivo Models” (Journal of Medicinal Chemistry, 2024).
Like-named read-outs stand apart in the source and are kept apart here.

Columns and labels:
[1] = system: normal human primary dermal fibroblasts; set-up: method as in PMID 29688241; settings: 48 h; previously obtained; cited from earlier work
[2] = system: HCT116DoxR (Dox-resistant colorectal carcinoma cell line); test: MTS cell viability assay, 2D culture, HCT116DoxR; settings: read-out: IC50 (μM) HCT116DoxR, 48 h of exposure
Protocol: (§1) The in vitro cytotoxic potential of Cu(II) complexes in tumor and healthy cells was assessed using the MTS assay, a colorimetric method that allows the quantification of viable cells in culture.[46]
In this regard, cell viability was performed for each of the ligands on HCT116DoxR and fibroblasts.
Cell culture and maintenance
(§2) The cancer cell lines HCT116 (colorectal carcinoma) and A2780 (ovarian carcinoma) were obtained
(§3) from the American Type Culture Collection (ATCC®, Manassas, VA, USA), as well as the normal
human primary dermal fibroblasts.
(§4) Apart from the A2780 cell line, which was cultured in Roswell Park Memorial Institute (RPMI)
(§5) medium, all cells were cultured in Dulbecco’s modified Eagle medium (DMEM). Both media were
(§6) supplemented with 10% (v/v) fetal bovine serum (FBS) and 1% (v/v) of a Pen/Strep
(§7) (Penicillin/Streptomycin) solution. To maintain the resistant phenotype of the HCT116DoxR cell line,
(§8) the medium was additionally supplemented with 3.6 μM Dox4. All media and supplements were
(§9) purchased from Thermo Fischer Scientific (Waltham, MA, USA).
(§10) Cells were maintained in 25 cm2 T-flasks (T25) in a humidified atmosphere at 37 °C and 5% (v/v) CO
(§11) (SANYO CO2 Incubator, Electric Biomedical Co., Osaka, Japan).
(§12) The effect of Cu(II) complexes on cell viability was studied in HCT116, HCT116DoxR, and A2780
(§13) cancer cell lines and in normal human primary fibroblasts. Cells were seeded in a density of 0.75×105
(§14) cells/mL into 96-well plates and incubated in a humidified atmosphere at 37 °C and 5% (v/v) CO2 for
(§15) 24 h. After incubation, complexes were weighed, immediately solubilized in 100% (v/v) DMSO and
(§16) diluted for the final concentration with cell culture medium. The medium in each well was replaced by
(§17) a solution of fresh medium containing each Cu(II) complex (concentrations ranging from 0.01 μM to
(§18) as negative and positive controls, respectively.
(§19) Following a second incubation period of 48 h in the same conditions, the supernatant of each well was
(§20) replaced by a solution containing MTS reagent (3-(4,5-dimethylthiazol-2-yl)-5-(3-
(§21) carboxymethoxyphenyl)-2-(4-sulfophenyl)-2H-tetrazolium) provided by the CellTiter 96® AQueous
(§22) Non-Radioactive Cell Proliferation Assay Kit (Promega, Madison, WI, EUA) for a 30 minutes
(§23) incubation. The percentage of viable cells was indirectly determined by the spectrophotometric
(§24) quantification at 490 nm in a microplate reader, Tecan Infinite M200 (Tecan, Männedorf, Switzerland)
(§25) of formazan production, resultant from the reduction of the MTS reagent by mitochondrial
(§26) dehydrogenases. Since these enzymes are only active in viable cells, the absorbance value measured is
(§27) directly proportional to the percentage of viable cells in culture5.

HCT116DoxR cells [3] = test: Cell cycle progression (PI, flow cytometry)
Text: Therefore, we have assessed the cytostatic potential of complexes 2, 3, 5, and 7, and their ability to interfere with the progression of the cell cycle using the fluorescent marker PI. Since this marker can intercalate with DNA, the measurement of the fluorescence emitted by flow cytometry makes it possible to assess the DNA content at each stage of the cell cycle (G0/G1, S, and G2/M).[67] To ensure that all the cells were in the same phase before their exposure to the complexes, a double block was carried out with thymidine, a DNA synthesis inhibitor.[67]
(§28) HCT116DoxR cell line was seeded in 6-well plates in a density of 1×10^5 cells/mL and incubated for
(§29) 24 h. Afterwards, the culture medium was replaced by medium with IC50 concentrations of different
HCT116DoxR cell line was seeded in 6-well plates in a density of 1×10^5 cells/mL, incubated for 8 h in
a humidified atmosphere at 37 °C and 5% (v/v) CO2, and later synchronized in early S-phase with a 2
mM thymidine solution (Merck, Germany) for a 16 h period. Later, medium with thymidine was
replaced by fresh media and, after 8 h a second block with thymidine was performed in the same
concentrations of Cu(II) complexes. 0.1% (v/v) DMSO was used as the vehicle control while 5 μM
After treatment, cells were incubated for 9, 12,

HCT116DoxR cells [4] = test: Annexin V-FITC/PI apoptosis assay by flow cytometry; settings: 48 h, complexes at IC50, Dox 6 μM, cisplatin 5 μM
Protocol: To evaluate the cell death mechanism involved in the cytotoxic effect of the selected complexes, a double-staining with Annexin V-FITC and PI was performed. […] The use of Annexin V conjugated with the fluorophore FITC allows the quantification of this interaction and subsequent identification of cells in apoptosis by flow cytometry. Furthermore, PI is a fluorophore that can intercalate with DNA and that can only enter the cell when the membrane is either compromised or ruptured, making it possible to identify cells undergoing late apoptosis and necrosis. Therefore, the double staining makes it possible to distinguish between viable cells (FITC^–; IP^–), those undergoing initial apoptosis (FITC^+; IP^–), those undergoing late apoptosis (FITC^+; IP^+), and those undergoing necrosis (FITC^–; IP^+).[55],[58]
Evaluation of apoptosis induction in HCT116DoxR cell line by flow cytometry The induction of apoptosis in HCT116DoxR cell line was evaluated by flow cytometry, using the
Annexin V-FITC Apoptosis Detection Kit (Thermo Fisher Scientific, Waltham, MA, USA). Cells
were seeded in 6-well plates at a cell density of 1×10^5 cells/mL and incubated for 24 h. Afterwards,
culture medium was replaced by medium with different Cu(II) complexes at their IC50 concentrations.
After 48 h of incubation, cells were washed with PBS 1x, detached from each well with TrypLETM
Express and washed again with PBS 1x. Cells were then resuspended in 1x annexin-binding buffer and
incubated at rt for 15 min with Annexin V-FITC and 100 μg/mL PI.
All samples were analysed by an Attune® Acoustic Focusing Flow Cytometer (Thermo Fischer
Scientific, Waltham, MA, USA) and the results were processed with Attune® Cytometric software

[5] = system: HCT116DoxR (Dox-resistant colorectal carcinoma cell line); settings: cited from earlier work
HCT116DoxR cells [6] = test: Cellular senescence (β-galactosidase, flow cytometry); settings: 48 h; complexes at IC50, cisplatin 5 μM, Dox 6 μM
Protocol: Given the ability of the Cu(II) complexes to interfere with the progression of the cell cycle, the senescence of HCT116DoxR cells was analyzed after 48 h of exposure to their IC50 concentrations. […] To study the senescence-inducing capacity of the complexes, the activity of β-galactosidase, whose increased expression is associated with senescence, was quantified by flow cytometry (Figure 16).[73]
as §28, §29
(TBHP) were used as controls. After an incubation period of 48 h, cells were washed with PBS 1x, detached with TrypLETM Express and washed again with PBS 1x.

[7] = system: A2780 (ovarian carcinoma cell line); test: MTS cell viability assay, 2D culture, A2780; type: cell-based, human
Protocol: as §1
Cell culture and maintenance
as §2, §3
human primary dermal fibroblasts.
as §4, §5, §6, §7, §8, §9, §10, §11, §12, §13, §14, §15, §16, §17, §18, §19, §20, §21, §22, §23, §24, §25, §26, §27
(§30) By analysing the cell viability as a function of log10(concentration) using Prism 8 (GraphPad
(§31) in cell viability) of each complex in the respective cell line at 48 h. The selective index (SI) for each
(§32) complex was also determined by dividing the IC50 of human fibroblasts by the respective IC50 in each
(§33) cancer cell line (allowing us to understand how much active a complex is in tumor versus normal cell).

[8] = system: HCT116 (colorectal carcinoma cell line); test: MTS cell viability assay, 2D culture, HCT116; type: cell-based, human
Protocol: as §1
Cell culture and maintenance
as §2, §3
human primary dermal fibroblasts.
as §4, §5, §6, §7, §8, §9, §10, §11, §12, §13, §14, §15, §16, §17, §18, §19, §20, §21, §22, §23, §24, §25, §26, §27, §30, §31, §32, §33

caspase-8 = test: Caspase-8 activity (IETD-pNA cleavage); type: cell-based, human; settings: HCT116DoxR, 48 h; complexes at IC50, cisplatin 5 μM
Protocol: In this assay, the chromogenic substrate IETD-pNA, resulting from the conjugation between the peptide IETD (Ile-Glu-Thr-Asp) and the chromophore pNA (p-nitroanilide), is cleaved by caspase-8, releasing the chromophore, which is detected by measuring absorbance at 400 nm.[48] […]
treated with ECLTM Prime Western Blotting Detection Reagents (Cytiva, United Kingdom) for 5 min and exposed to a film in a dark room. Membranes were later incubated (with agitation) twice with Stripping buffer (0.1M glycine, 20 mM magnesium acetate, 50 mM KCl, pH 2.0) during 10 and 20 min, respectively, and subsequently incubated with anti-β-actin (1:5000; Sigma, St. Louis, USA) as a control to normalize the results. Proteins were quantified by densitometry using Image J software.
The Caspase-8 activity in HCT116DoxR cells exposed to Cu(II) complexes was evaluated using the Caspase-8 Assay kit (ab39700) (Abcam, Cambridge, United Kingdom). […]
The plate was then incubated for 2 h at 37°C, after which, absorbance was read at 400 nm on a Tecan Infinite M200 microplate reader (Männedorf, Switzerland).
ΔΨm was evaluated in HCT116DoxR cell line by using the JC-1 Mitochondrial Membrane Potential Assay Kit (Abnova Corporation, Walnut, CA, USA). […]
Autophagy induction in HCT116DoxR cell line was evaluated using the Autophagy Assay Kit (ab139484) (Abcam, Cambridge, United Kingdom) according to the manufacturers’ instructions. […]

Compound | IC50 [1] [µM] | IC50 [2] [µM] | cell cycle arrest in the G2/M phase (HCT116DoxR cells [3]; Dox 6 μM, 9–24 h) | cells (%) early apoptosis (HCT116DoxR cells [4]) [%] | cells (%) late apoptosis (HCT116DoxR cells [4]) [%] | cells (%) necrosis (HCT116DoxR cells [4]) [%] | cells (%) viable (HCT116DoxR cells [4]) [%] | percentage of apoptosis (early + late) (HCT116DoxR cells [4]) [%] | viability at 6 µM (HCT116DoxR cells [4]; Homo sapiens, read-out: cells (%) viable, 48 h) [%] | IC50 [5] [µM] | induction of cellular senescence compared to DMSO control (HCT116DoxR cells [6]) | IC50 ([7]; Homo sapiens, A2780, 48 h of exposure) [µM] | IC50 ([8]; Homo sapiens, HCT-116, 48 h of exposure) [µM] | cell cycle progression after 24 h (HCT116DoxR cells [3]; 24 h, complexes at IC50, cisplatin 5 μM) | IC50 ([7]; 48 h of exposure) [µM] | increase in caspase-8 activity compared to vehicle control (DMSO) (caspase-8) | IC50 ([8]; 48 h of exposure) [µM]
COc1ccc(-c2cc(-c3ccccn3)nc(-c3ccccn3)c2)c2ccccc12 [L3] | 0.95 ± 0.08 | 0.2 ± 0.02 | – | – | – | – | – | – | – | – | – | – | – | – | – | – | –
COc1cccc2c1C(=O)c1c(O)c3c(c(O)c1C2=O)C[C@@](O)(C(=O)CO)C[C@@H]3O[C@H]1C[C@H](N)[C@H](O)[C@H](C)O1 [Dox, doxorubicin, reference compound] | – | – | not verified | 16.6 ± 5.5 | 13.9 ± 1.9 | 9.8 ± 4.0 | 59.8 ± 3.8 | ~31 | ~60 | > 6 | did not induce an increase in cellular senescence | 0.1 ± 0.04 | 0.5 ± 0.1 | – | – | – | –
N.N.[Cl][Pt][Cl] [cisplatin, reference compound] | – | – | – | 47.5 ± 7.2 | 19.8 ± 5.9 | 0.1 ± 0.1 | – | 65 to 70 | – | – | induce cellular senescence | – | – | delay the cycle in the G2/M phase | 1.9 ± 0.2 | 2- to 3 fold | 15.6 ± 5.3
